Where two headings read alike, the source gives them in different places.
Columns and labels:
[1] = test system: cisplatin-induced emesis in ferrets; assay: Ferret emesis (Assay 3), inhibition of cisplatin-induced emesis; type: in vivo; settings: Mustela putorius, po, 60 minutes before cisplatin 10 mg/kg i.v.; 4 hours observation; read-out: ferret emesis: ID90
Protocol: ASSAY 3: Ferret Emesis […] Ten minutes later they are fed with approximately 100 g of tinned cat food. At 60 minutes following oral dosing, cisplatin (10 mg/kg) is given i.v. via a jugular vein catheter inserted under a brief period of halothane anaesthesia. The catheter is then removed, the jugular vein ligated and the skin incision closed. The ferrets recover rapidly from the anaesthetic and are mobile within 10-20 minutes. The animals are observed continuously during recovery from the anaesthetic and for 4 hours following the cisplatin injection. The numbers of retches and vomits occurring during the 4 hours after cisplatin administration are recorded by trained observers.

NK-1 receptor = target: T1, NK-1 receptor (Meriones unguiculatus, UniProt Q5DUB1); assay: Gerbil foot-tapping (Assay 2), inhibition of foot tapping induced by central infusion of NK-1 receptor agonist GR73632; type: in vivo, Mongolian gerbils; settings: iv
T1 construct: male or female Mongolian gerbils (35-70 g) are anaesthetised; from tissue; host or cells: brain of the living Mongolian gerbil (in vivo, agonist infused intracerebroventricularly)
Excerpt: ASSAY 2: Gerbil Foot-Tapping
CNS-penetrant NK-1 receptor antagonists for use in the present invention can be identified by their ability to inhibit foot tapping in gerbils induced by anxiogenic agents (such as pentagastrin) or central infusion of NK-1 receptor agonists such as GR73632, or caused by aversive stimulation such as foot shock or single housing, based on the method of Rupniak & Williams, Eur. J. Pharmacol., 1994, 265, 179.
Briefly, male or female Mongolian gerbils (35-70 g) are anaesthetised by inhalation of an isoflurane/oxygen mixture to permit exposure of the jugular vein in order to permit administration of test compounds or vehicle in an injection volume of 5 ml/kg i.v. Alternatively, test compounds may be administered orally or by subcutaneous or intraperitoneal routes. A skin incision is then made in the midline of the scalp to expose the skull. […]

[2] = test system: morphine withdrawal response in guinea-pigs; settings: systemic administration, only high doses active, Chahl & Johnston, 1992; cited from earlier work
[3] = test system: naloxone-precipitated withdrawal signs in rats; settings: central (i.c.v.) injection; rats receiving morphine for five days; Maldonado et al, 1993; cited from earlier work

T1 sequence (Q5DUB1 whole entry, the tested form may be a part): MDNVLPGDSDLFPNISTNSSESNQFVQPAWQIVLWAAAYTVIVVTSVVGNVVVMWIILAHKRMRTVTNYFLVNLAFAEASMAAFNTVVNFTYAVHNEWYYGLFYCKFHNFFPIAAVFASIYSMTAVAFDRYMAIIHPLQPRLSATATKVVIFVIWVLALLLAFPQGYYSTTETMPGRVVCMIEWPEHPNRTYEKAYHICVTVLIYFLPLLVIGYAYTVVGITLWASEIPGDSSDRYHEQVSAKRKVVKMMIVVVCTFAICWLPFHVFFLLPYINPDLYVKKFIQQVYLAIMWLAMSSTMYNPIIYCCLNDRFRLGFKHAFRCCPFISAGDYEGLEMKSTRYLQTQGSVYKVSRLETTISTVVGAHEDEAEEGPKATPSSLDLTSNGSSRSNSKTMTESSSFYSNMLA

In the case of `C[C@@H](O[C@H]1OCCN(Cc2n[nH]c(=O)[nH]2)[C@H]1c1ccc(F)cc1)c1cc(C(F)(F)F)cc(C(F)(F)F)c1` [2-(R)-(1-(R)-(3,5-bis(trifluoromethyl)phenyl)ethoxy)-3-(S)-(4-fluorophenyl)-4-(3-(5-oxo-1H,4H-1,2,4-triazolo)methyl)morpholine], the ED90 [1] was < 3 mg/kg, the ED50 (NK-1 receptor; 5 min, i.v., 5 mins., administered immediately prior to GR73632 challenge, read-out: gerbil foot-tapping (5 mins.): ID50) was 0.36 mg/kg and the ED50 (NK-1 receptor; 24 hours prior to central NK1 agonist challenge, read-out: gerbil foot-tapping (24 hrs.): ID50) was 0.33 mg/kg.

In the case of `COc1ccccc1CNC1C2CCN(CC2)C1C(c1ccccc1)c1ccccc1` (centres unmarked) [CP-96,345], the “doses active in blocking the withdrawal response” value [2] is listed as 20 mg/kg.

In the case of `COc1ccccc1CC(=N)N1CC2C(=O)CCC(c3ccccc3)(c3ccccc3)C2C1` (centres unmarked) [RP67580], the “attenuation of naloxone-precipitated withdrawal signs” value [3] is given as “could attenuate naloxone-precipitated withdrawal signs”.

— patent US5919781A, “Use of NK-1 receptor antogonists for treating substance use disorders” (Merck Sharp & Dohme Ltd., priority 1996, dated 1999)
